The target in one experiment is T1, JAK3 (Homo sapiens, UniProt P52333).
T1 sequence (P52333 1-1124): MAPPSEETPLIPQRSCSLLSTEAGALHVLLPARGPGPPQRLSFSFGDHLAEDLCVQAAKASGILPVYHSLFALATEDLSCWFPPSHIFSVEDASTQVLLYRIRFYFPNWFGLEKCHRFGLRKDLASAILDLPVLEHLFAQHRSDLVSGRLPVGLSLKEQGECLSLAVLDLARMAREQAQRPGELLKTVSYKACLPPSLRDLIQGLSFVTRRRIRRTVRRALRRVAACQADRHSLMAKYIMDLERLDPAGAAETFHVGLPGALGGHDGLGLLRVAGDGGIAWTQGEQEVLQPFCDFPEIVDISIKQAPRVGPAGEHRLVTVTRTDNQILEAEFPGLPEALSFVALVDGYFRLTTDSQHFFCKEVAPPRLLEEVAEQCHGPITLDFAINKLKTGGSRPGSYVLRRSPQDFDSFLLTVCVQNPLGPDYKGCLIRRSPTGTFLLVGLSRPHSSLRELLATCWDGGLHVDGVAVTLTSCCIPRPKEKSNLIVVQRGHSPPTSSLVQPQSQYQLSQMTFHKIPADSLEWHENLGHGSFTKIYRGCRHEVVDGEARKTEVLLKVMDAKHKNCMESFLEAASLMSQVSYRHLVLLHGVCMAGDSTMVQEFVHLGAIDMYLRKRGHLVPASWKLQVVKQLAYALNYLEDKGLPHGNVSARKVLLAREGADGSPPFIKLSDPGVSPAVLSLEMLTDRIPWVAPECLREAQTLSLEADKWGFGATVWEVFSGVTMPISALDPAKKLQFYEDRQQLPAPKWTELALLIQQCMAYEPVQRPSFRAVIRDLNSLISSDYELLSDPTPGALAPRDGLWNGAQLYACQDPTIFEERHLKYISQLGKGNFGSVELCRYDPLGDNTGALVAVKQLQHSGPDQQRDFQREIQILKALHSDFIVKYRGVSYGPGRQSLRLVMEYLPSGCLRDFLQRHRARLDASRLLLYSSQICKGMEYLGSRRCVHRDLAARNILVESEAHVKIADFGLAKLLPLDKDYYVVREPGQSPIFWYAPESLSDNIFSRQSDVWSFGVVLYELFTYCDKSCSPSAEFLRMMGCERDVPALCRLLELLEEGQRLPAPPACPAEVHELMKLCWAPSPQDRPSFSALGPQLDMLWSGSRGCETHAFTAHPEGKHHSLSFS
Put plainly: JAK3 Inhibition Assay (33P incorporation into poly(Glu)4Tyr). The format is biochemical. As to conditions: 1 nM JAK3, 5 μM ATP, 1 μM poly(Glu)4Tyr, 25° C. On the procedure:
Compounds were screened for their ability to inhibit JAK3 using the assay shown below. Reactions were carried out in a kinase buffer containing 100 mM HEPES (pH 7.4), 1 mM DTT, 10 mM MgCl2, 25 mM NaCl, and 0.01% BSA. Substrate concentrations in the assay were 5 μM ATP (200 uCi/μmole ATP) and 1 μM poly(Glu)4Tyr. Reactions were carried out at 25° C. and 1 nM JAK3.
To each well of a 96 well polycarbonate plate was added 1.5 μl of a candidate JAK3 inhibitor along with 50 μlof kinase buffer containing 2 μM poly(Glu)4Tyr and 10 μM ATP. This was then mixed and 50 μl of kinase buffer containing 2 nM JAK3 enzyme was added to start the reaction. After 20 minutes at room temperature (25° C.), the reaction was stopped with 50 μl of 20% trichloroacetic acid (TCA) that also contained 0.4 mM ATP. The entire contents of each well were then transferred to a 96 well glass fiber filter plate using a TomTek Cell Harvester. After washing, 60 μl of scintillation fluid was added and ^33P incorporation detected on a Perkin Elmer TopCount.
As a reminder, the Ki is the dissociation constant of the complex between target and ligand, obtained from inhibition or displacement. Read a high Ki as a looser hold on the target. Take `COc1ccc(Nc2nc(N)n(-c3ncc(F)c(NCC(=O)NCC(F)(F)F)n3)n2)cc1` [Compound 58]: the Ki was in the range of 1 to 10 µM.
Regarding `CC(C)C(Nc1nc(-c2c[nH]c(C(=O)N3CC=CC3)c2)ncc1F)C(=O)NCC(F)(F)F` (centres unmarked) [Compound 108], the inhibition constant Ki was not above 1 µM.
In turn, `C[C@H](Nc1cc(-n2nc(Nc3ccc(F)cc3)nc2N)ncn1)C(=O)NCC(F)(F)F` [Compound 33] gave a Ki not above 1 µM.
Molecule `Nc1ncccc1-c1ncc(F)c(N2CC(C(=O)NCC(F)(F)F)C2)n1` [Compound 32] displayed an inhibition constant (Ki) of 1 to 10 µM.
`O=C(NCc1ccccc1)c1cc(-c2nccc(N3CCC[C@@H]3C(=O)NCC(F)(F)F)n2)c[nH]1` [Compound 121]: the Ki lay within 1 to 10 µM.
For the molecule `CC(C)(Nc1ccnc(-c2ccc3ncccc3c2)n1)C(=O)NCC(F)(F)F` [Compound 75], the Ki is not above 1 µM.
On the same count and under the same terms, for `O=C(NCC(F)(F)F)[C@H]1CCCN1c1nc(-c2c[nH]c(C(=O)N3CC=CC3)c2)ncc1F` [Compound 120] the value was not above 1 µM.
For the molecule `Nc1nc(Nc2ccccc2)nn1-c1ncc(F)c(N2CCC[C@@H]2C(=O)NCC(F)(F)F)n1` [Compound 51], the Ki lay in the range of 1 to 10 µM.
For `CC(C)(Nc1nc(-c2c[nH]c(C(=O)NC3CC3)c2)ncc1F)C(=O)NCC(F)(F)F` [Compound 94], the Ki fell in the range of 1 to 10 µM.
In the case of `CNC(=O)c1cc(-c2ncc(F)c(N3CCC[C@@H]3C(=O)NCC(F)(F)F)n2)c[nH]1` [Compound 115], the Ki was 10 to 50 µM.
Regarding `CC[C@H](Nc1cc(-n2nc(Nc3ccc(F)cc3)nc2N)ncn1)C(=O)NCC(F)(F)F` [Compound 34], the Ki was not above 1 µM.
With `CC(C)(Nc1ccnc(-c2c[nH]c(C(=O)NCc3ccccc3)c2)n1)C(=O)NCC(F)(F)F` [Compound 99], the Ki was 10 to 50 µM.
Same read-out and setting: with `CC(C)(Nc1ccnc(-c2c[nH]c3ccc(Cl)cc23)n1)C(=O)NCC(F)(F)F` [Compound 158] the figure was 1 to 10 µM; with `CC(C)C(Nc1nc(-c2c[nH]c(C(=O)NCC3CC3)c2)ncc1F)C(=O)NCC(F)(F)F` (centres unmarked) [Compound 106], 10 to 50 µM; with `CC(C)(Nc1nc(-c2ccc3ncccc3c2)ncc1F)C(=O)NCC(F)(F)F` [Compound 68], not above 1 µM.
The molecule `C[C@H](Nc1nc(-c2cccnc2)ncc1F)C(=O)NCC(F)(F)F` [Compound 4] yielded an inhibition constant (Ki) of 1 to 10 µM.
Regarding `Nc1nc2ccc(-c3nccc(N4CCC[C@@H]4C(=O)NCC(F)(F)F)n3)cc2s1` [Compound 61], the Ki was 1 to 10 µM.
Molecule `CC(C)(Nc1ccnc(-c2ccc3ncsc3c2)n1)C(=O)NCC(F)(F)F` [Compound 154] showed a Ki not above 1 µM.
The molecule `CC(C)C(Nc1nc(-c2c[nH]c(C(=O)N3CCCC3)c2)ncc1F)C(=O)NCC(F)(F)F` (centres unmarked) [Compound 107] registered a Ki of 1 to 10 µM.
Molecule `CC(C)(Nc1ccnc(-c2c[nH]c(=O)c(N)c2)n1)C(=O)NCC(F)(F)F` [Compound 136] yielded a Ki of 1 to 10 µM.
On the same count and under the same terms, for `CNC(=O)c1cc(-c2nccc(N[C@@H](C(=O)NCC(F)(F)F)C(C)C)n2)c[nH]1` [Compound 109] the value was 1 to 10 µM; for `CC(C)[C@@H](Nc1nc(-c2c[nH]c(C(=O)NC3CC3)c2)ncc1F)C(=O)NCC(F)(F)F` [Compound 126], 10 to 50 µM; for `O=C(NCC(F)(F)F)[C@H]1CCCN1c1ccnc(-c2c[nH]c(C(=O)N3CCCC3)c2)n1` [Compound 130], 1 to 10 µM.
Still for that read-out and setting: for `CC(C)(Nc1nc(-c2ccc(=O)[nH]c2)ncc1F)C(=O)NCC(F)(F)F` [Compound 84] the value was 10 to 50 µM; for `CC(C)(Nc1nc(-c2ccc3nccnc3c2)ncc1F)C(=O)NCC(F)(F)F` [Compound 162], not above 1 µM; for `O=C(NCC(F)(F)F)[C@H]1CCCN1c1ccnc(-c2ccc(O)cc2)n1` [Compound 147], 1 to 10 µM.
Molecule `CC(C)[C@@H](Nc1nc(-c2c[nH]c(C(=O)NCc3ccccc3)c2)ncc1F)C(=O)NCC(F)(F)F` [Compound 104] had a Ki of 1 to 10 µM.
Molecule `CC(C)(Nc1ccnc(-c2ccc3c(c2)OCO3)n1)C(=O)NCC(F)(F)F` [Compound 74] yielded a Ki not above 1 µM.
Consider `O=C(NCC(F)(F)F)[C@H]1CCCN1c1ccnc(-c2c[nH]c3ccc(Cl)cc23)n1` [Compound 159], for which the Ki fell in the range of 10 to 50 µM.
In turn, `CC(C)(Nc1ccnc(-c2c[nH]c(C(=O)N3CC=CC3)c2)n1)C(=O)NCC(F)(F)F` [Compound 102] yielded an inhibition constant (Ki) not above 1 µM.
For `CC(C)(Nc1ccnc(-c2ccc(O)cc2)n1)C(=O)NCC(F)(F)F` [Compound 144], the Ki is not above 1 µM.
`CC(C)[C@@H](Nc1ccnc(-c2c[nH]c(C(=O)N3CCCC3)c2)n1)C(=O)NCC(F)(F)F` [Compound 113] yielded a Ki of 1 to 10 µM.
Take `Nc1ncccc1-c1ncc(F)c(NCCC(=O)NCC(F)(F)F)n1` [Compound 30]: the Ki lay within 1 to 10 µM.
As for `O=C(NCC(F)(F)F)[C@H]1CCCN1c1nc(-c2ccc(O)cc2)ncc1F` [Compound 151], the Ki lay in the range of 10 to 50 µM.

The experiment is the same for the next values; noted with them: at concentrations of 5.0 μM.
As for `Nc1nc(NC2CCCCC2)nn1-c1ncc(F)c(N2CCC[C@@H]2C(=O)NCC(F)(F)F)n1` [Compound 47], the “inhibition of JAK3 at concentrations of 5.0 μM” value is listed as “did not inhibit”.
Still for that read-out and setting: with `Nc1nc(Nc2ccccc2Cl)nn1-c1ncc(F)c(N2CCC[C@@H]2C(=O)NCC(F)(F)F)n1` [Compound 41] the entry was “did not inhibit”.
Still for that read-out and setting: with `CC(C)Nc1nc(N)n(-c2ncc(F)c(N3CCC[C@@H]3C(=O)NCC(F)(F)F)n2)n1` [Compound 53] the entry was “did not inhibit”; with `Nc1nc(NC2CC2)nn1-c1ncc(F)c(N2CCC[C@@H]2C(=O)NCC(F)(F)F)n1` [Compound 52], “did not inhibit”.
With `CCCNc1nc(N)n(-c2ncc(F)c(N3CCC[C@@H]3C(=O)NCC(F)(F)F)n2)n1` [Compound 54], the “inhibition of JAK3 at concentrations of 5.0 μM” value was “did not inhibit”.

Staying with this experiment, now noted: at concentrations of 50 μM.
For the molecule `CC(C)[C@@H](Nc1ccnc(-c2c[nH]c(C(=O)O)c2)n1)C(=O)NCC(F)(F)F` [Compound 134], the “inhibition of JAK3 at concentrations of 50 μM” value (“inhibition of JAK3 … of 50 μM” below) is “did not inhibit”.
As for `O=C(NCC(F)(F)F)[C@H]1CCCN1c1nc(-c2c[nH]c3ccc(Cl)cc23)ncc1F` [Compound 157], the “inhibition of JAK3 … of 50 μM” value is “did not inhibit”.
Same read-out and setting: for `COc1ccc(-c2nccc(N3CCC[C@@H]3C(=O)NCC(F)(F)F)n2)cc1` [Compound 150] the value was “did not inhibit”; for `O=C(NCC(F)(F)F)[C@H]1CCCN1c1nc(-c2cccnc2)ncc1F` [Compound 23], “did not inhibit”.
Still for that read-out and setting: for `C[C@@H](Nc1nc(-c2ccc(F)nc2)ncc1F)C(=O)NCC(F)(F)F` [Compound 19] the value was “did not inhibit”; for `O=C(O)c1cc(-c2ncc(F)c(N3CCC[C@@H]3C(=O)NCC(F)(F)F)n2)c[nH]1` [Compound 127], “did not inhibit”; for `COc1ccc(-c2nccc(N[C@@H](C(=O)NCC(F)(F)F)C(C)C)n2)cc1` [Compound 143], “did not inhibit”.
Take `COc1ccc(-c2ncc(F)c(N[C@@H](C(=O)NCC(F)(F)F)C(C)C)n2)cc1` [Compound 145]: the “inhibition of JAK3 … of 50 μM” value is given as “did not inhibit”.
`CC(=O)Nc1nc2ccc(-c3ncc(F)c(N4CCC[C@@H]4C(=O)NCC(F)(F)F)n3)cc2s1` [Compound 92]: the “inhibition of JAK3 … of 50 μM” value was “did not inhibit”.
With `CC(C)[C@@H](Nc1ccnc(-c2ccc3c(c2)OCCO3)n1)C(=O)NCC(F)(F)F` [Compound 146], the “inhibition of JAK3 … of 50 μM” value is reported as “did not inhibit”.
For `COc1ccc(-c2ncc(F)c(NCCC(=O)NCC(F)(F)F)n2)cn1` [Compound 14], the “inhibition of JAK3 … of 50 μM” value is “did not inhibit”.
